Measured values reported in publication PMC1950228, “Organosilicon-Containing Thiazole Derivatives as Potential Lipoxygenase Inhibitors and Anti-Inflammatory Agents” (Bioinorganic Chemistry and Applications, 2007).
≈ marks a conversion by molar mass, not a printed value. Where “and” joins values, the source holds several entries; their conditions need not be identical. Identical values can stand only once. Entries after “also recorded” stand apart in the source; their conditions may differ. Like-named read-outs stand apart in the source and are kept apart here. Marks after values point to notes of the source that are not given here.

Columns and labels:
[1] = biological target: T1, soybean lipoxygenase (LOX) (Glycine max, UniProt P08170); experiment: Soybean lipoxygenase inhibition (UV absorbance at 234 nm); format: biochemical; conditions: for % inhibition LOX: at 0.1 mmol
T1 sequence (P08170 1-839): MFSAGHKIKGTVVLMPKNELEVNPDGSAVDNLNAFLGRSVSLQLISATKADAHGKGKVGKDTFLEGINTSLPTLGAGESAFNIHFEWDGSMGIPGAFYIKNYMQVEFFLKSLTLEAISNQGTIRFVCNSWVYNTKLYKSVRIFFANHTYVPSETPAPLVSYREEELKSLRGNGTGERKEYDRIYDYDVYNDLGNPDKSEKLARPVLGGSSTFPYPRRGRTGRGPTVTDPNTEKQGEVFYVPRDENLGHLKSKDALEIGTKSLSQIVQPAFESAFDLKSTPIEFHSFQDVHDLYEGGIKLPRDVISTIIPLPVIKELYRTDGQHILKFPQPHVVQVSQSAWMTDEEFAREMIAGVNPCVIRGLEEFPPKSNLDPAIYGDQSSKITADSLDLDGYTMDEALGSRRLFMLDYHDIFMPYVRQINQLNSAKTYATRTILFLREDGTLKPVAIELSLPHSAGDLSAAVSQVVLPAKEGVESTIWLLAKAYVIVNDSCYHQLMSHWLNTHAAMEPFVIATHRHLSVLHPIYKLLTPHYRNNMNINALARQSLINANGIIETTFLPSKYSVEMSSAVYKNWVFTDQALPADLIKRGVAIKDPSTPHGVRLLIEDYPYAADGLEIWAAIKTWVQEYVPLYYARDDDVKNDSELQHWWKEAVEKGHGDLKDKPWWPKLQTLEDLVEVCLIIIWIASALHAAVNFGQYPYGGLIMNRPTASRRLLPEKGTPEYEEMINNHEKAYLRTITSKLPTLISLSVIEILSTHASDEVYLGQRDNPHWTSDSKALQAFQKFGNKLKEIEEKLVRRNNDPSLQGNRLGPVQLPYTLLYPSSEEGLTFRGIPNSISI
Experimental: The tested compounds dissolved in DMSO or ethanol (concentrations ranged from 0.1 to 1 mM) were incubated at room temperature with sodium linoleate (0.1 mmol) and 0.2 mL of enzyme solution (250 U/mL in saline).
While one may not extrapolate the quantitative results of this assay to the inhibition of mammalian 5-LOX, it has been shown that inhibition of plant lipoxygenase activity by NSAIDs is qualitatively similar to their inhibition of the rat mast cell lipoxygenase and may be used as a simple qualitative screen for such activity. […] The IC50 values for compounds 14, 16, 17, 19, and 22 were determined.

[2] = test system: carrageenin mice paw edema (CPE); experiment: Carrageenin-induced mice paw edema inhibition; format: in vivo, AKR or A mice
Experimental: AKR or A mice (20–30 g, groups of ten) of both sexes were used. Females pregnant were excluded. A single dose of 0.2 mmol/kg body weight of compounds 12, 16, 20, 21 and 0.01 mmol/kg of compound 22 or 0.013 mmol/kg of compound 14 suspended in water with few drops of Tween 80 was administered intraperitoneally simultaneously to the intradermally injection of 0.05 mL carrageenin in the right hind paw. Indomethacin was used as a standard diluted agent.
Organosilicon-containing compounds 12, 14, 16, 20–22 were examined in vivo for their anti-inflammatory activity using the carrageenin mice paw edema (CPE) as a model of inflammation. The in vivo anti-inflammatory effects of the tested thiazole derivatives were assessed by using the functional model of carrageenin-induced […] paw edema and are presented in Table 1 as percentage of weight increase at the right hind paw in comparison to the uninjected left hind paw.

MG-22A (mouse hepatoma) [3] = experiment: In vitro cytotoxicity, MG-22A; format: cell-based; conditions: for CC50: Mus musculus, MG-22A; for LC50 MG-22A: mouse hepatoma, coloration not stated
Experimental: (§1) Monolayer tumour cell lines MG-22A (mouse hepatoma), HT-1080 (human fibrosarcoma), and normal mouse fibroblasts (NIH 3T3) were cultivated for 72 hours in DMEM standard medium (Sigma) without an indicator and antibiotics. After the ampoule had thawed, cells from one to four passages were used in three concentrations of test compound: 1, 10 and 100 μg mL^−1. The control cells and cells with tested compounds in the range of 2–5* 10^4 cell mL^−1 concentration (depending on line nature) were placed on separate 96 wells plates. Solutions containing test compounds were diluted and added in wells to give the final concentrations. Control cells were treated in the same manner only in the absence of test compounds. Plates were cultivated for 72 hours. The number of survived cells was determined using crystal violet (CV), 3-(4,5-dimethylthiazol-2-yl)-2,5-diphenyltetrazolinium bromide (MTT), or neutral red (NR) coloration which was assayed by multiscan spectrophotometer. The quantity of alive cells on control plate was taken in calculations for 100% [22, 23]. The LC50 was calculated using Graph Pad Prism 3.0 program, r < .05. Concentration of NO was determined according to [23].

[4] = test system: HT-1080 (human fibrosarcoma); experiment: Intracellular NO generation, HT-1080; format: cell-based; conditions: CV coloration
Experimental: as §1

MG-22A (mouse hepatoma) [5] = experiment: Intracellular NO generation, MG-22A; format: cell-based; conditions: CV coloration
Experimental: as §1

[6] = test system: HT-1080 (human fibrosarcoma); experiment: In vitro cytotoxicity, HT-1080; format: cell-based; conditions: for stimulation of HT-1080 cell growing: CV, at all studied concentrations; for CC50: Homo sapiens; for LC50 HT-1080: human fibrosarcoma, coloration not stated
Experimental: as §1

[7] = In vitro cytotoxicity, NIH 3T3 (neutral red) and LD50; format: cell-based; conditions: for CC50 at 72 h: 50% cell killing, neutral red coloration, normal mouse fibroblasts, read-out: LC50 NIH 3T3 NR; for LD50: mouse, NIH 3T3, method not described
Experimental: The control cells and cells with tested compounds in the range of 2–5* 10^4 cell mL^−1 concentration (depending on line nature) were placed on separate 96 wells plates. […] Control cells were treated in the same manner only in the absence of test compounds. Plates were cultivated for 72 hours. The number of survived cells was determined using crystal violet (CV), 3-(4,5-dimethylthiazol-2-yl)-2,5-diphenyltetrazolinium bromide (MTT), or neutral red (NR) coloration which was assayed by multiscan spectrophotometer. The quantity of alive cells on control plate was taken in calculations for 100% [22, 23]. The LC50 was calculated using Graph Pad Prism 3.0 program, r < .05. Concentration of NO was determined according to [23].

[8] = test system: HT-1080 (human fibrosarcoma); conditions: cited from earlier work
[9] = dose 0.2 mmol/kgbw, intraperitoneally
[10] = 50% cell killing, MTT coloration, 72 hours, read-out: LC50 MG-22A MTT
[11] = 50% cell killing, crystal violet coloration, 72 hours, read-out: LC50 MG-22A CV
[12] = HT-1080, 50% cell killing, MTT coloration, 72 hours, read-out: LC50 HT-1080 MTT
[13] = HT-1080, 50% cell killing, crystal violet coloration, 72 hours, read-out: LC50 HT-1080 CV
[14] = NIH 3T3 normal mouse fibroblasts
[15] = soybean lipoxygenase, sodium linoleate 0.1 mmol, read-out: IC50 LOX
[16] = 72 h, read-out: LC50 MG-22A MTT
[17] = HT-1080, 72 h, read-out: LC50 HT-1080 MTT

Cc1ncsc1CCO[Si](C)(C)C [Compound 12, 4-methyl-5-(β-trimethylsiloxyethyl)-thiazole]
% inhibition LOX ([1]; soybean lipoxygenase): 9.1% | % carrageenin mice paw edema inhibition (CPE%) [2, 9]: 24 ^** %

O=C(CN1CCC(O)CC1)Nc1nccs1 [Compound 6, 2-(4-hydroxypiperidin-1-yl)-N-(thiazol-2-yl)-acetnamide]
decrease of MG-22A cell growing (MG-22A (mouse hepatoma) [3]; MTT coloration): up to 40% | CC50 (MG-22A (mouse hepatoma) [3]; [10]): > 100 µg/mL | CC50 (MG-22A (mouse hepatoma) [3]; [11]): > 100 µg/mL | LC50 MG-22A (MG-22A (mouse hepatoma) [3]): do not exhibit cytotoxic properties | NO HT-1080 CV [4]: 4 | NO MG-22A CV (MG-22A (mouse hepatoma) [5]): 6 | stimulation of HT-1080 cell growing [6]: up to 55% | CC50 [6, 12]: > 100 µg/mL | CC50 [6, 13]: > 100 µg/mL | LC50 HT-1080 [6]: do not exhibit cytotoxic properties | CC50 at 72 h [7, 14]: > 100 µg/mL | LD50 [7]: > 2000 mg/kg

C[Si](C)(C)CCC[n+]1ccsc1N.[I-] [Compound 22, 2-amino-3-(γ-trimethylsilylpropyl)thiazolium iodide]
IC50 [1, 15]: 460 µM | % carrageenin mice paw edema inhibition (CPE%) ([2]; dose 0.01 mmol/kg, intraperitoneally): 55.0% and 55.0 ^* %

C[Si](C)(C)OC1CCN(CC(=O)Nc2nc(-c3ccccc3)cs2)CC1 [Compound 18, 2-(4-trimethylsiloxypiperidin-1-yl)-N-(4-phenylthiazol-2-yl)-acetamide]
% inhibition LOX ([1]; soybean lipoxygenase): 66.7%

CCCCCCCCCCCCCCc1sc(NC(=O)CN2CCC(O[Si](C)(C)C)CC2)nc1-c1ccccc1 [Compound 20, 2-(4-trimethylsiloxypiperidin-1-yl)-N-(4-phenyl-5-tetradecylthi-azol-2-yl)-acetamide]
lower lipoxygenase inhibiting properties in comparison with compound 18 ([1]; difference of % inhibition at 0.1 mmol): 26% | % inhibition LOX ([1]; soybean lipoxygenase): 40.8% | % carrageenin mice paw edema inhibition (CPE%) [2, 9]: 38.3 ^* %

O=C(CCN1CCC(O)CC1)Nc1nccs1 [Compound 10, 3-(4-hydroxypiperidin-1-yl)-N-(thiazol-2-yl)-propionamide]
LC50 human fibrosarcoma ([8]; HT-1080, coloration not stated, previously published data ref 17): 48 µg/mL (≈ 188 µM)

COc1ccc2c(c1)c(CC(=O)O)c(C)n2C(=O)c1ccc(Cl)cc1 [Indomethacin, reference compound]
% carrageenin mice paw edema inhibition (CPE%) ([2]; standard, dose 0.1 mmol/kgbw): 57.4%

C[Si](C)(C)OCc1csc(N)n1 [Compound 14, 2-amino-4-trimethylsiloxymethyl-thiazole]
IC50 [1, 15]: 100 µM | % carrageenin mice paw edema inhibition (CPE%) ([2]; dose 0.013 mmol/kg, intraperitoneally): 35.5 ^* %

C[Si](C)(C)OC1CCN(CC(=O)Nc2nccs2)CC1 [Compound 17, 2-(4-trimethylsiloxypiperidin-1-yl)-N-(thiazol-2-yl)-acetamide]
decrease of MG-22A cell growing (MG-22A (mouse hepatoma) [3]; MTT coloration): up to 40% | CC50 (MG-22A (mouse hepatoma) [3]; [16]): > 100 µg/mL | LC50 MG-22A (MG-22A (mouse hepatoma) [3]): do not exhibit cytotoxic properties; also recorded: inactive | NO HT-1080 CV [4]: 11 | NO MG-22A CV (MG-22A (mouse hepatoma) [5]): 23 | stimulation of HT-1080 cell growing [6]: up to 55% | CC50 [6, 17]: > 100 µg/mL | LC50 HT-1080 [6]: do not exhibit cytotoxic properties; also recorded: inactive | IC50 [1]: 350 µM | CC50 at 72 h [7]: > 100 µg/mL | LD50 [7]: 2130 mg/kg

COc1ccc(-c2csc(NC(=O)CN3CCC(O)CC3)n2)cc1 [Compound 8, 2-(4-hy-droxypiperidin-1-yl)-N-[4-(p-methoxyphenyl)-thiazol-2-yl]-acetamide]
CC50 (MG-22A (mouse hepatoma) [3]; [10]): 16 µg/mL | CC50 (MG-22A (mouse hepatoma) [3]; [11]): 17 µg/mL | NO HT-1080 CV [4]: 8 | NO MG-22A CV (MG-22A (mouse hepatoma) [5]): 75 | CC50 [6, 12]: 100 µg/mL (≈ 288 µM) | CC50 [6, 13]: > 100 µg/mL | CC50 at 72 h [7, 14]: > 100 µg/mL | LD50 [7]: 1110 mg/kg

C[Si](C)(C)OCc1csc(-c2ccccc2)n1 [Compound 16, 2-phenyl-4-trimethylsilox-ymethyl-thiazole]
IC50 [1, 15]: 470 µM | % carrageenin mice paw edema inhibition (CPE%) [2, 9]: 47.6 ^* %

C[Si](C)(C)OC1CCN(CCC(=O)Nc2nccs2)CC1 [Compound 21, 3-(4-trimethylsiloxypiperidin-1-yl)-N-(thiazol-2-yl)-propionamide]
LC50 human fibrosarcoma [8]: 44 µg/mL (≈ 134 µM) | % carrageenin mice paw edema inhibition (CPE%) [2, 9]: 57.2% and 57.2 ^* %

COc1ccc(-c2csc(NC(=O)CN3CCC(O[Si](C)(C)C)CC3)n2)cc1 [Compound 19, 2-(4-trimethylsilyloxypiperidin-1-yl)-N-[4-(p-methoxyphenyl)-thiazol-2-yl]-acetamide]
CC50 (MG-22A (mouse hepatoma) [3]; 72 h, read-out: LC50 MG-22A CV): 21 µg/mL | CC50 (MG-22A (mouse hepatoma) [3]; [16]): 13 µg/mL | CC50 (MG-22A (mouse hepatoma) [3]; read-out: LC50 MG-22A): 30 µM | NO HT-1080 CV [4]: 27 | NO MG-22A CV (MG-22A (mouse hepatoma) [5]): 122 | CC50 [6, 17]: 100 µg/mL (≈ 238 µM) | CC50 ([6]; HT-1080, read-out: LC50 HT-1080): > 100 µg/mL | IC50 [1]: 10 µM | CC50 at 72 h [7]: 72 µg/mL (≈ 172 µM) | LD50 [7]: 839 mg/kg
